Experimental data from patent publication US10933053B2, “Treating infections with ceftolozane/tazobactam in subjects having impaired renal function” (MERCK SHARP & DOHME CORP., priority 2013, dated 2021).
Values joined by “and” are separate entries in the source; they are usually repeats but may differ in a detail not shown here. Equal entries are not always repeated.

Key:
[1] = Binding to human plasma proteins; type: in vitro ADME; conditions: human, plasma; value used in Monte Carlo simulation; read-out: unbound fraction (Fu)
[2] = subjects with normal renal function; cited from earlier work
[3] = Phase I studies: impact of renal function on PK and safety of ceftolozane/tazobactam; type: in vivo, human; conditions: for median AUC0-∞ increase vs normal renal function / median Cmax increase vs normal renal function: moderate renal impairment; for median AUC0-∞ increase vs dose-normalized exposure in normal renal function / median Cmax increase vs dose-normalized exposure in normal renal function: severe renal impairment
Excerpt: Male and female subjects, aged 18 to 79 years, with varying degrees of renal function were enrolled in two, prospective, open-label, phase I studies of intravenous ceftolozane/tazobactam. A total of 36 subjects were enrolled into cohorts based on degree of renal function: normal (n=11), mild impairment (n=6), moderate impairment (n=7), severe impairment (n=6), and ESRD on HD (n=6). To ensure subjects with ESRD were receiving effective HD, a target adequacy of HD calculated from the pre- and post-blood urea nitrogen ratios (Kt/V) of at least 1.2 for a minimum of 3 months prior to enrollment was required.
All cohorts received ceftolozane/tazobactam as an intravenous infusion over 1 h. The normal, mild, and moderate renal impairment cohorts received a single dose of ceftolozane/tazobactam 1,000 mg/500 mg; the severe renal impairment cohort received a single dose of ceftolozane/tazobactam 500 mg/250 mg; the ESRD cohort received a dose of ceftolozane/tazobactam 500 mg/250 mg initiated at the end of HD on day 1 and another dose initiated 2 h before HD on day 4. Subjects with ESRD underwent HD for 3 to 4 h using a high-flux membrane as scheduled; average dialysis flow rate was 600 to 800 ml/min. Revaclear hemodialyzers (Gambro, Stockholm, Sweden) were used in 5 subjects (ultrafiltration coefficient 50 to 60 ml/h/mmHg, high flux membrane of 1.4 to 1.8 m^2) and a CT 190G hemodialyzers (Baxter Healthcare, McGaw Park, Ill.) was used in 1 subject (ultrafiltration coefficient 36 ml/h/mmHg, high flux membrane of 1.9 m^2). The average blood flow rate was 400 to 600 ml/min with the exception of one subject with rates between 264 and 400 ml/min.
Plasma concentrations of ceftolozane and tazobactam were measured prior to, during, and following administration of ceftolozane/tazobactam. Blood samples were collected 30 min prior to administration, at the end of administration and at 5, 15, and 30 min and 1, 2, 3, 5, 7, 9, 11, 15, 25, and 35 h after completion of ceftolozane/tazobactam administration in the normal, mild, and moderate renal impairment cohorts. Severe renal impairment and ESRD cohorts off HD had samples taken 30 min prior to administration and at 0.5, 1, 1.5, 2, 3, 6, 9, 12, 24, 36, and 48 h after the start of administration. On the day of and following HD, the subjects with ESRD had samples taken 30 min prior to administration and at 0.5, 1, 1.5, 2, 3, 4, 5, 6, 9, 12, 24, 36, and 44 h after the start of the administration. The entire dialysate was collected at each of the following intervals: 0 to 1, 1 to 2, 2 to 3, and 3 h to the end of dialysis. Urine for PK analysis was obtained in the normal, mild, and moderate cohorts at 0 to 2, 2 to 4, 4 to 8, 8 to 12, 12 to 24, and 24 to 36 h after the start of ceftolozane/tazobactam administration. In the ESRD and severe renal impairment cohorts, urine was collected during the confinement period pre-dose, 0 to 24 h, and 24 to 48 h after the start of the administration, unless the subject was anuric. A validated LC/MS/MS method was utilized to analyze all plasma, urine, and dialysate samples for ceftolozane and tazobactam (MicroConstants Inc., San Diego, Calif.) (4). The lower limit of quantification (LLOQ) in plasma was 0.25 μg/ml for ceftolozane and 0.1 μg/ml for tazobactam. The assay was linear between 0.25 and 150 μg/ml for ceftolozane and between 0.1 and 50 μg/ml for tazobactam. […] The LLOQ in dialysate for both ceftolozane and tazobactam was 1 ng/ml and the assay was linear between 1 and 500 ng/ml. […] The LLOQ for ceftolozane and tazobactam in urine was 5 and 10 μg/ml, respectively, and the assay was linear between 5 and 5,000 μg/ml for ceftolozane and between 10 and 10,000 μg/ml for tazobactam.

[4] = set-up: species or system human
Excerpt: Phoenix™ Non Linear Mixed Effects (NLME) version 1.2 (Pharsight Corporation, Certara USA, Inc., 9666 Olive Blvd., Suite 425, St. Louis, Mo. 63132 USA) with the extended least squares first order conditional estimation (FOCE-ELS) was used for population PK modeling and SAS® 9.3 (SAS Institute Inc., 100 SAS Campus Drive, Cary, N.C. 27513-2414, USA) with finite element method (FEM) was used for Monte Carlo simulation. R (2.15.0) and SAS® 9.3 were used for data management, statistical summaries and table/figures generation.
No other structural model was further tested unless necessary. Ceftolozane or tazobactam plasma concentration-time data with hemodialysis were then included and hemodialysis was tested as a covariate effect on both clearance and volume of distribution for the central compartment. The final model was selected based on the stability of the model, reliability and interpretability of the parameter estimates and the goodness-of-fit plots.
The population PK model for ceftolozane was developed via a 2-step process. First, the ceftolozane plasma concentrations without hemodialysis (first dose) were modeled and best described with a 2-compartment disposition model (FIG. 15) plus a proportional residual error model. The between-subject variability was reliably estimable on all four PK parameters CL, Vc, CL2 and V2. When the ceftolozane plasma concentrations following the second dose with hemodialysis were included, the above model, with the addition of a dichotomous covariate and a between-subject variability for the effect of hemodialysis, was the best to fit the combined data.
Similar to ceftolozane, tazobactam plasma concentrations without hemodialysis (first dose) were first modeled and well described with a 2-compartment disposition model (FIG. 15) plus a proportional residual error model. The between-subject variability was reliably estimable on all four PK parameters CL, Vc, CL2 and V2. When the tazobactam plasma concentrations following the second dose were included, the model with hemodialysis evaluated as a dichotomous covariate with a between-subject variability was the best to fit all the combined data. […] (17)
Ceftolozane/tazobactam plasma concentrations collected from 6 patients with ESRD following a single dose without hemodialysis and a second dose with hemodialysis were used to develop a population PK model (Phoenix™ Non Linear Mixed Effects [NLME]).
A 2-compartment disposition model was used to fit the ceftolozane or tazobactam plasma concentration-time data without hemodialysis and to test the between-subject variability and residual variability. Ceftolozane or tazobactam plasma concentration-time data with hemodialysis were then included and hemodialysis was tested as a covariate effect on both clearance and volume of distribution for the central compartment.

Question: What does the source list for C[C@]1(Cn2ccnn2)[C@H](C(=O)O)N2C(=O)C[C@H]2S1(=O)=O [Tazobactam, tazobactam]?
Answer: fraction unbound [1]: 0.7; median daily steady-state AUC [2]: 89.4 µg·h/mL; median AUC0-∞ increase vs normal renal function [3]: 2.2 fold; median Cmax increase vs normal renal function [3]: 1.6 fold; median AUC0-∞ increase vs dose-normalized exposure in normal renal function [3]: 3.8 fold; median Cmax increase vs dose-normalized exposure in normal renal function [3]: 1.9 fold; BSV % (RSE %) of CL ([4]; ESRD): 142 (29.3) %; BSV % (RSE %) of V2 ([4]; ESRD): 24.3 (39.8) %; BSV % (RSE %) of Vc ([4]; ESRD): 398 (34.3) %; BSV % (RSE %) of log-scale coefficient of hemodialysis on CL ([4]; ESRD): 29 (31.4) %; Log-scale coefficient of hemodialysis on CL, mean estimate ([4]; ESRD): 1.89 and 1.9; Log-scale coefficient of hemodialysis on Vc, mean estimate ([4]; ESRD): 0.434 and 0.43; increase of CL by HD ([4]; ESRD): 6.6 fold; increase of Vc by HD ([4]; ESRD): 1.5 fold; V2, volume of distribution for peripheral compartment, mean estimate ([4]; human): 6.55; apparent terminal half-life ([4]; human): about 4 hours; apparent volume of distribution for the central compartment with hemodialysis ([4]; human): about 16 L; clearance with hemodialysis ([4]; human): about 20 L/hr; half-life ([4]; human): about 1 hours

Question: For Cn1c(N)c(NC(=O)NCCN)c[n+]1CC1=C(C(=O)O)N2C(=O)[C@@H](NC(=O)/C(=N\OC(C)(C)C(=O)O)c3nsc(N)n3)[C@H]2SC1 [Ceftolozane, (6R,7R)-3-[(5-amino-4-{[(2-aminoethyl)carbamoyl]amino}-1-methyl-1H-pyrazol-2-ium-2-yl)methyl]-7-({(2Z)-2-(5-amino-1,2,4-thiadiazol-3-yl)-2-[(1-carboxy-1-methylethoxy)imino]acetyl}amino)-8-oxo-5-thia-1-azabicyclo[4.2.0]oct-2-ene-2-carboxylate], which fraction unbound [1] is on record?
Answer: 0.79

Question: What about the “median daily steady-state AUC” value [2] of the same molecule?
Answer: 690 µg·h/mL

Question: What about the “median AUC0-∞ increase vs normal renal function” value [3] of the same molecule?
Answer: 2.5 fold

Question: What about the “median Cmax increase vs normal renal function” value [3] of the same molecule?
Answer: 1.2 fold

Question: And the “median AUC0-∞ increase vs dose-normalized exposure in normal renal function” value [3]?
Answer: 4.4 fold

Question: What about the “median Cmax increase vs dose-normalized exposure in normal renal function” value [3] of the same molecule?
Answer: 1.3 fold

Question: What about the “BSV % (RSE %) of CL” value ([4]; ESRD) of the same molecule?
Answer: 52.2 (29.2) %

Question: And the “BSV % (RSE %) of CL2” value ([4]; ESRD)?
Answer: 35.9 (41.9) %

Question: And the “BSV % (RSE %) of V2” value ([4]; ESRD)?
Answer: 48.4 (29.9) %

Question: And the “BSV % (RSE %) of log-scale coefficient of hemodialysis on CL” value ([4]; ESRD)?
Answer: 69.6 (29.8) %

Question: And the “BSV % (RSE %) of log-scale coefficient of hemodialysis on Vc” value ([4]; ESRD)?
Answer: 40.0 (34.7) %

Question: What about the “Log-scale coefficient of hemodialysis on CL, mean estimate” value ([4]; ESRD) of the same molecule?
Answer: 4.09 and 4.1

Question: What about the “Log-scale coefficient of hemodialysis on Vc, mean estimate” value ([4]; ESRD) of the same molecule?
Answer: 1.54 and 1.5

Question: And the “increase of CL by HD” value ([4]; ESRD)?
Answer: 60 fold

Question: And the “increase of Vc by HD” value ([4]; ESRD)?
Answer: 4.7 fold

Question: And the “V2, volume of distribution for peripheral compartment, mean estimate” value ([4]; human)?
Answer: 11.8

Question: What about the “Vc, volume of distribution for central compartment, mean estimate” value ([4]; human) of the same molecule?
Answer: 6 FIXED L

Question: What about the apparent terminal half-life ([4]; human) of the same molecule?
Answer: about 40 hours

Question: And the “apparent volume of distribution for the central compartment with hemodialysis” value ([4]; human)?
Answer: about 28 L

Question: And the clearance with hemodialysis ([4]; human)?
Answer: about 20 L/hr

Question: And the half-life ([4]; human)?
Answer: about 2 hours
